Test results from patent US20170342451A1, “BIOSYNTHESIS OF PACLITAXEL INTERMEDIATE” (Board of Trustees of Michigan State University, priority 2012, published 2017).
Read-outs that look alike come from different tables or passages of the source.

Legend:
TycA-S563A [1] = target: T1, TycA-S563A (Brevibacillus parabrevis, UniProt P09095, S563A); settings: CoA with (S)-α-Phe as cosubstrate; for kcat^CoA: turnover with CoA at apparent saturation
Description: Under steady-state conditions, (S)-α-phenylalanine, (R)-β-phenylalanine, and (2R,3S)-phenylisoserine at 5, 10, 20, 40, 80, 160, 250, 500, 1000 and 2000 μM were separately incubated with TycA or TycA-S563A (20 μg) for 30 min. At the end of each reaction, and prior to mass spectrometry analysis, acetyl CoA (1 μM) was added as the internal standard to each sample to correct for variations of the analyte. The products of the enzyme-catalyzed reaction were quantified by a liquid chromatography multiple reaction monitoring (LC-ESI-MRM) mass spectrometry technique (Anderson & Hunter, Mol. Cell. Proteomics 5: 573-588 (2006)) on the Quattro-Premier Electro-Spray Mass Spectrometer coupled with Acquity® UPLC system fitted with a C18 Ascentis Express column (2.5×50 mm, 2.7 μm) at 30° C. An aliquot (5 μL) of each sample was loaded onto the column and the analytes were eluted with a solvent gradient of acetonitrile (Solvent A) in 0.05% triethylamine in distilled water (Solvent B). Elution was held at 2.5% Solvent A for 3.17 min, increased to 100% Solvent A over 5 sec with a 2-min hold, and then returned to 2.5% Solvent A over 5 sec with a 50-sec hold. The flow rate employed was 0.4 mL/min. The effluent from the chromatography column was directed to the mass spectrometer where the first quadrupole mass analyzer (in negative ion mode) was set to select for the molecular ion of a biosynthesized acyl CoA product. […]
The KM values of TycA and TycA-S563A for CoA were assessed by incubating each enzyme separately with (S)-α-phenylalanine (1 mM), MgCl2 (3 mM), ATP (1 mM), and CoA at 0.05, 0.1, 0.2, 0.4, 0.8, 1.6, 3.2, 6.4, 12.8 and 25.6 mM at 31° C. for 20 min. […] The products of the enzyme-catalyzed reaction were quantified by LC-ESI-MRM, and the monitored fragment ion (m/z 408) derived from the CoA moiety of the thioester analytes in the effluent was quantified identically to the procedure described earlier herein.

TycA-S563A [2] = target: T1, TycA-S563A; settings: for kcat^NAC: TycA-S563A with NAC at apparent saturation
Description: Substrates (S)-α-phenylalanine, (R)-β-phenylalanine, and (2R,3S)-phenylisoserine (each at 1 mM) were separately incubated with TycA or TycA-S563A (20 μg) in the presence of N-acetylcysteamine (NAC; 1 mM), ATP (1 mM), and Mg^2+ (3 mM) to establish steady-state conditions with respect to protein concentration and time at 31° C. Under steady-state conditions, either (S)-phenylalanine, (R)-β-phenylalanine, or (2R,3S)-phenylisoserine at 5, 10, 20, 40, 80, 160, 250, 500, 1000 and 2000 μM was separately incubated with TycA or TycA-S563A (20 μg), ATP (1 mM), Mg^2+ (3 mM), and N-acetylcysteamine (1 mM, ‘NAC’) in duplicate, single stopped-time ([…]) 100 μL assays. The reactions were quenched by acidification to a pH of about 2 (10% formic acid in distilled water). (N-Boc)-α-phenylalanyl-SNAC (1 μM) was added as an internal standard when (S)-α-phenylalanine or (2,3)-phenylisoserine was used as the substrate; alternatively, (N-Boc)-β-phenylalanyl-SNAC (1 μM) was added as an internal standard when (R)-β-phenylalanine was used as the substrate (the synthesis is described below). The samples were analyzed on a Quattro-Premier Electro-Spray Mass Spectrometer coupled with Acquity® UPLC system fitted with a C18 Ascentis Express column (2.5×50 mm, 2.7 μm) at 30° C. An aliquot (5 μL) of each sample was loaded onto the column and the analytes were eluted with a solvent gradient of […] 0.05% triethylamine in distilled water (Solvent B) (held at 2.5% Solvent A for […], increased to 100% A over 5 sec with a 2-min hold, and then returned to 2.5% Solvent A over 5 sec with a 50-sec hold) at a flow rate of 0.4 mL/min. In brief, the effluent from the chromatography column was directed to the Quattro Premier ESI mass spectrometer, in MRM scan mode, to quantify the biosynthetic acyl SNAC products. The transition ions derived from the corresponding molecular ions were m/z 120.06, 131.10 and 105.95 for (S)-α-phenylalanyl-SNAC, (R)-β-phenylalanyl-SNAC and (2R,3S)-phenylisoserinyl-SNAC, respectively. A standard curve was used to convert the peak area under the curve of the monitored fragment ion to concentration for each biosynthetic phenylpropionyl SNAC.
Authentic (5)-α-phenylalanyl, (R/S)-β-phenylalanyl- and (2R,3S)-phenylisoserinyl-SNAC were used to construct the standard curves by correlating the peak area under the curve of the monitored ion to concentration of the standard (at 0.16, 0.32, 0.64, 1.3, 2.5, 5, 10, 20, 40, 80, 160 and 320 μM) using linear regression analysis.
The KM values of TycA and TycA-S563A for N-acetylcysteamine (NAC) was assessed by incubating each enzyme separately with (S)-α-phenylalanine (1 mM), MgCl2 (3 mM), ATP (1 mM), and N-acetylcysteamine at 5, 10, 20, 40, 80, 160, 250, 500, 1000 and 2000 μM at 31° C. for 20 min. The reactions were quenched by acidification to a pH of about 2 (10% formic acid in distilled water), and an internal standard, (N-Boc)-α-phenylalanyl-SNAC (1 μM), was added to each sample to correct for variations of the analyte. The [S-(acyl)-N-(acetyl)]cysteamine (SNAC) thioester products of the enzyme-catalyzed reaction were quantified by a liquid chromatography multiple reaction monitoring (MRM) mass spectrometry technique, and the monitored fragment ion (m/z 120) derived from the SNAC moiety of thioester analyte in the effluent was quantified identically to the procedure described earlier.

[3] = NAC with (S)-α-Phe as cosubstrate

T1 sequence (P09095 other isoform, or with tags, fused parts or gaps S563A): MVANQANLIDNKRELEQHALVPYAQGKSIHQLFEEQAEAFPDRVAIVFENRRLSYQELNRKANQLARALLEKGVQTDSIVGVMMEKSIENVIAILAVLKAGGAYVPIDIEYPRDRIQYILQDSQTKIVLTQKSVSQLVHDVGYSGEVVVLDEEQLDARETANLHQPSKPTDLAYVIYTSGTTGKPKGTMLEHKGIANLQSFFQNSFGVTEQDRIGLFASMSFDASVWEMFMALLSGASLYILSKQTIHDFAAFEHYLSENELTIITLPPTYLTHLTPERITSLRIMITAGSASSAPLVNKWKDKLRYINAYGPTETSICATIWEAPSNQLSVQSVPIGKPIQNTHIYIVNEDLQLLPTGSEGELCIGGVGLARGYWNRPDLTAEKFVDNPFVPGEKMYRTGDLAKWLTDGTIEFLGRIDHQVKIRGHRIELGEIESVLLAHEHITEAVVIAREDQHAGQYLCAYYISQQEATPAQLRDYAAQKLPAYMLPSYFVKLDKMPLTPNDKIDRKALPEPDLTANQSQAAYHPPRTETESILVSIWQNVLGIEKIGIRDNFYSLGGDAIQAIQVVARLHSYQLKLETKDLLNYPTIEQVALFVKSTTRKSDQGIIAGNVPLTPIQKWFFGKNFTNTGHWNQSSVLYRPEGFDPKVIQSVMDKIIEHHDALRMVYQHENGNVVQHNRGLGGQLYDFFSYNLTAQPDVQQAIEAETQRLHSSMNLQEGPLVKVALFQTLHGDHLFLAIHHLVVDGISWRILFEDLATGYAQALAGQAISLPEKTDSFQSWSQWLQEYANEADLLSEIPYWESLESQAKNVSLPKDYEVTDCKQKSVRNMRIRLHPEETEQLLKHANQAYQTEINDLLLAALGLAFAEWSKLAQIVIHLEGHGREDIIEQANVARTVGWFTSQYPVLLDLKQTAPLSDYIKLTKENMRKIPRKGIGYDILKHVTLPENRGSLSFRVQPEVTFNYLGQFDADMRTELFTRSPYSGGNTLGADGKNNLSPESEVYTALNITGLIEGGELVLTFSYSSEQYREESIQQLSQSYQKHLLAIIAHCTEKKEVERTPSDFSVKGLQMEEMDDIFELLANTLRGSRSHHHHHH

Row | SMILES | kcat^CoA (TycA-S563A [1]) [min⁻¹] | decrease in turnover, TycA-S563A compared to TycA (TycA-S563A [2]; NAC cosubstrate) [fold] | increase in KM, TycA-S563A compared to TycA (TycA-S563A [2]; NAC cosubstrate) [fold] | lower catalytic efficiency of TycA-S563A compared to that of TycA (TycA-S563A [2]; NAC cosubstrate) [fold] | kcat^NAC (TycA-S563A [2]; [3]) [min⁻¹] | Km (TycA-S563A [1]; CoA 1 mM, ATP 1 mM, MgCl2 3 mM, 31° C.) [µM] | Km (TycA-S563A [2]; TycA-S563A with NAC, NAC with (S)-α-Phe as cosubstrate) [µM]
1 | N[C@H](CC(=O)O)c1ccccc1 [(R)-β-Phe, (R)-β-phenylalanine] | 3.00 ± 0.04 | 15 | ~2 | ~30 | 0.024 ± 0.001 |  | 
2 | N[C@@H](c1ccccc1)[C@@H](O)C(=O)O [(2R,3S)-PheIso, (2R,3S)-phenylisoserine] | 0.43 ± 0.01 |  |  |  | 0.31 ± 0.05 | 191 ± 10 | 512 ± 43
